“Also recorded” adds a separate entry of the source.
How the values were obtained:
Format in all cases: physicochemical
[1] = Competitive slurry experiments (thermodynamic stability of solid forms); details: for thermodynamic stability of the solid form, in words: conclusion from competitive slurry experiments and thermal data; for Form/Pattern after slurrying for 3 days: 1:1 mixture with Form I, 40° C., XRPD
Method: The slurries were stirred at 40° C. for 3 days. After 3 days, the solids were filtered centrifugally and analysed by XRPD.

[2] = Dynamic vapour sorption (DVS), hygroscopicity; details: for mass gain at 90% relative humidity (DVS): 25° C.; for hygroscopicity (DVS), in words: RH up to 90%
Method: Approximately 10-20 mg of sample was placed into a mesh vapour sorption balance pan and loaded into a DVS Intrinsic or Advantage dynamic vapour sorption balance by Surface Measurement Systems. The sample was subjected to a ramping profile from 40-90% relative humidity (RH) at 10% increments, maintaining the sample at each step until a stable weight had been achieved (dm/dt 0.004%, minimum step length 30 minutes, maximum step length 120 minutes) at 25° C. After completion of the sorption cycle, the sample was dried using the same procedure to 0% RH and then a second sorption cycle back to 40% RH. Two cycles were performed. The weight change during the sorption/desorption cycles were plotted, allowing for the hygroscopic nature of the sample to be determined. XRPD analysis was then carried out on any solid retained.

[3] = Storage at 40° C./75% RH in an open vial, XRPD; details: 3 days
Method: 200 mg SCO-101, Form III (Pattern 24) was placed at 40° C./75% RH in an open vial covered with tissue for 3 days.

[4] = Variable temperature XRPD (VT-XRPD) of solid form conversion; details: mixture of Form III and Form IV at 150° C.
[5] = saturated acetone:heptane (50:50% v/v)
[6] = saturated acetone:water (50:50% v/v)

mass gain at 90% relative humidity (DVS) ([2]; 90% RH)	hygroscopicity (DVS), in words ([2]; listed as crystal form I)	Form/Pattern after slurrying for 3 days [1, 5]	Form/Pattern after slurrying for 3 days [1, 6]	water absorbed at 90% RH (DVS) ([2]; 90% RH)	weight gain when increasing RH from 70% to 80% (DVS) ([2]; RH 70% to 80%, corresponds to monohydrate) [%]	hygroscopicity (DVS), in words ([2]; listed as crystal form II)	solid form after storage (XRPD) [3]	temperature of complete transformation into Form IV (VT-XRPD) [4] [°C]	SMILES	thermodynamic stability of the solid form, in words [1]	hygroscopicity (DVS), in words [2]
no increase in mass	non-hygroscopic								O=C(Nc1cc(C(F)(F)F)cc(C(F)(F)F)c1)Nc1ccc(Br)cc1-c1nnn[nH]1 [Form I, N-[4-Bromo-2-(1H-1,2,3,4-tetrazol-5-yl)phenyl]-N′-[3,5-bis(trifluoromethyl)phenyl]urea]	thermodynamically most stable polymorph; also recorded: thermodynamically stable polymorph	non-hygroscopic
approx 6%		Form I	Form I	approx. 6 % (w/w)	3	hygroscopic			O=C(Nc1cc(C(F)(F)F)cc(C(F)(F)F)c1)Nc1ccc(Br)cc1-c1nnn[nH]1 [Form II, N-[4-Bromo-2-(1H-1,2,3,4-tetrazol-5-yl)phenyl]-N′-[3,5-bis(trifluoromethyl)phenyl]urea]	metastable form	takes up water to form a hydrate; also recorded: hygroscopic
							Form IV, Pattern 29	155	O=C(Nc1cc(C(F)(F)F)cc(C(F)(F)F)c1)Nc1ccc(Br)cc1-c1nnn[nH]1 [Form III, N-[4-Bromo-2-(1H-1,2,3,4-tetrazol-5-yl)phenyl]-N′-[3,5-bis(trifluoromethyl)phenyl]urea]		
		Form I	Form I						O=C(Nc1cc(C(F)(F)F)cc(C(F)(F)F)c1)Nc1ccc(Br)cc1-c1nnn[nH]1 [Pattern 5, N-[4-Bromo-2-(1H-1,2,3,4-tetrazol-5-yl)phenyl]-N′-[3,5-bis(trifluoromethyl)phenyl]urea]		
